{
  "source": "paper PMC3214022",
  "about": "“Plasmodium falciparum Parasites Are Killed by a Transition State Analogue of Purine Nucleoside Phosphorylase in a Primate Animal Model” (PLoS ONE, 2011)",
  "experiment": "Weights, CBC, blood chemistry and signs of toxicity, Table S1 sheet PD-2 (infected Aotus, twice a day for seven days)",
  "format": "in vivo, Aotus lemurinus lemurinus",
  "conditions": "oral 10 mg/kg twice a day/7 days, 26047 Female (ITM1)",
  "description": "Laboratory bred Aotus lemurinus lemurinus monkeys (0.75–0.89 kg) were maintained as described. […] Blood samples were collected before the treatment started (t = 0), 0.05 h, 0.5 h, 1 h, 2 h, 6 h, 24 h, 48 h, and 6, 12 and 18 days after the first dose from each monkey and processed as described below. Pharmacokinetic parameters were calculated using PKSolver. For efficacy studies, Aotus monkeys were inoculated intravenously with 5×10^6 parasites of the FVO strain of P. falciparum in an approved treatment protocol. […] Parasitaemia was determined by Giemsa-stained thick blood smears prepared daily from the marginal ear vein [41]. Blood samples were collected from each monkey and transferred to tubes containing lithium heparin, centrifuged and both plasma and blood cells were frozen at −80 °C until analysis. Animals received a physical examination and blood chemistry profiles were monitored after treatment as described previously. Any monkey not responding appropriately to treatment was cured of its infection with mefloquine (40 mg kg^−1). […] The day of clearance is defined as the first of three consecutive days in which the thick blood films are parasite negative. The day of recrudescence is the first of three consecutive days of positive thick blood films after a period of clearance. Suppression is defined as a transient decrease in the parasite count post-treatment without clearance.",
  "data": [
    {"smiles": "Nc1nc2c(CN3CC(O)C(CO)C3)c[nH]c2c(=O)[nH]1", "note": "(centres unmarked) [BCX4945, 4′-deaza-1′-aza-2′-deoxy-1′-(9-methylene)-Immucillin-G]", "values": [
      {"measurement": "Lymphocytes (%)", "setting": "day 12", "result": 68.4, "unit": "%"},
      {"measurement": "Lymphocytes (x 103/ul)", "setting": "day 12", "result": "11.5 x 103/ul"},
      {"measurement": "Mean Corpuscular Hemoglobin", "setting": "day 12", "result": 28.3, "unit": "pg"},
      {"measurement": "Mean Corpuscular Volume", "setting": "day 12", "result": 79.5, "unit": "fL"},
      {"measurement": "Mean Hemoglobin Content", "setting": "day 12", "result": 35.5, "unit": "g/dL"},
      {"measurement": "Mean Platelet Volume", "setting": "day 12", "result": 9.9, "unit": "fL"},
      {"measurement": "Monocytes (%)", "setting": "day 12", "result": 10.3, "unit": "%"},
      {"measurement": "Monocytes (x 103/ul)", "setting": "day 12", "result": "1.7 x 103/ul"},
      {"measurement": "Platelets", "setting": "day 12", "result": 338000, "unit": "µL⁻¹"},
      {"measurement": "Red Cell Distribution Width", "setting": "day 12", "result": 13.6, "unit": "%"},
      {"measurement": "Reticulocytes", "setting": "day 12", "result": 2.2, "unit": "%"},
      {"measurement": "WEIGHT", "setting": "day 12", "result": 845, "unit": "g"},
      {"measurement": "Blood Urea Nitrogen", "setting": "day 15", "result": 11.4, "unit": "mg/dL"},
      {"measurement": "Creatine", "setting": "day 15", "result": 0.638, "unit": "mg/dL"},
      {"measurement": "Erythrocytes", "setting": "day 15", "result": "4.51e+06", "unit": "µL⁻¹"},
      {"measurement": "Glutamate Pyruvate Transaminase", "setting": "day 15", "result": 21.4, "unit": "U/L"},
      {"measurement": "Granulocytes (%)", "setting": "day 15", "result": 7.5, "unit": "%"},
      {"measurement": "Granulocytes (x 103/ul)", "setting": "day 15", "result": "1 x 103/ul"},
      {"measurement": "Hematocrit", "setting": "day 15", "result": 36.3, "unit": "%"},
      {"measurement": "Hemoglobin", "setting": "day 15", "result": 12.9, "unit": "g/dL"},
      {"measurement": "Leucocytes", "setting": "day 15", "result": 13100, "unit": "µL⁻¹"},
      {"measurement": "Lymphocytes (%)", "setting": "day 15", "result": 81.3, "unit": "%"},
      {"measurement": "Lymphocytes (x 103/ul)", "setting": "day 15", "result": "10.7 x 103/ul"},
      {"measurement": "Mean Corpuscular Hemoglobin", "setting": "day 15", "result": 28.7, "unit": "pg"},
      {"measurement": "Mean Corpuscular Volume", "setting": "day 15", "result": 80.5, "unit": "fL"},
      {"measurement": "Mean Hemoglobin Content", "setting": "day 15", "result": 35.6, "unit": "g/dL"},
      {"measurement": "Mean Platelet Volume", "setting": "day 15", "result": 10.4, "unit": "fL"},
      {"measurement": "Monocytes (x 103/ul)", "setting": "day 15", "result": "1.5 x 103/ul"},
      {"measurement": "Platelets", "setting": "day 15", "result": 164000, "unit": "µL⁻¹"},
      {"measurement": "Red Cell Distribution Width", "setting": "day 15", "result": 17.5, "unit": "%"},
      {"measurement": "Reticulocytes", "setting": "day 15", "result": 4.2, "unit": "%"},
      {"measurement": "WEIGHT", "setting": "day 15", "result": 839, "unit": "g"},
      {"measurement": "Blood Urea Nitrogen", "setting": "day 18", "result": 16.4, "unit": "mg/dL"},
      {"measurement": "Creatine", "setting": "day 18", "result": 0.5, "unit": "mg/dL"},
      {"measurement": "Erythrocytes", "setting": "day 18", "result": "4.39e+06", "unit": "µL⁻¹"},
      {"measurement": "Glutamate Pyruvate Transaminase", "setting": "day 18", "result": 15.3, "unit": "U/L"},
      {"measurement": "Granulocytes (%)", "setting": "day 18", "result": 7.8, "unit": "%"},
      {"measurement": "Granulocytes (x 103/ul)", "setting": "day 18", "result": "1.7 x 103/ul"},
      {"measurement": "Hematocrit", "setting": "day 18", "result": 35.7, "unit": "%"},
      {"measurement": "Hemoglobin", "setting": "day 18", "result": 12.3, "unit": "g/dL"},
      {"measurement": "Leucocytes", "setting": "day 18", "result": 21900, "unit": "µL⁻¹"},
      {"measurement": "Lymphocytes (%)", "setting": "day 18", "result": 82.9, "unit": "%"},
      {"measurement": "Lymphocytes (x 103/ul)", "setting": "day 18", "result": "18.2 x 103/ul"},
      {"measurement": "Mean Corpuscular Hemoglobin", "setting": "day 18", "result": 28, "unit": "pg"},
      {"measurement": "Mean Corpuscular Volume", "setting": "day 18", "result": 81.2, "unit": "fL"},
      {"measurement": "Mean Hemoglobin Content", "setting": "day 18", "result": 34.4, "unit": "g/dL"},
      {"measurement": "Mean Platelet Volume", "setting": "day 18", "result": 12.4, "unit": "fL"},
      {"measurement": "Monocytes (%)", "setting": "day 18", "result": 9.3, "unit": "%"},
      {"measurement": "Monocytes (x 103/ul)", "setting": "day 18", "result": "2 x 103/ul"},
      {"measurement": "Platelets", "setting": "day 18", "result": 115000, "unit": "µL⁻¹"},
      {"measurement": "Red Cell Distribution Width", "setting": "day 18", "result": 16.7, "unit": "%"},
      {"measurement": "Reticulocytes", "setting": "day 18", "result": 3.1, "unit": "%"},
      {"measurement": "WEIGHT", "setting": "day 18", "result": 860, "unit": "g"},
      {"measurement": "Erythrocytes", "setting": "day 25", "result": "4.98e+06", "unit": "µL⁻¹"},
      {"measurement": "Granulocytes (%)", "setting": "day 25", "result": 4.7, "unit": "%"},
      {"measurement": "Granulocytes (x 103/ul)", "setting": "day 25", "result": "0.8 x 103/ul"},
      {"measurement": "Hematocrit", "setting": "day 25", "result": 40.8, "unit": "%"},
      {"measurement": "Hemoglobin", "setting": "day 25", "result": 13.7, "unit": "g/dL"},
      {"measurement": "Leucocytes", "setting": "day 25", "result": 16900, "unit": "µL⁻¹"},
      {"measurement": "Lymphocytes (%)", "setting": "day 25", "result": 90, "unit": "%"},
      {"measurement": "Lymphocytes (x 103/ul)", "setting": "day 25", "result": "15.2 x 103/ul"},
      {"measurement": "Mean Corpuscular Hemoglobin", "setting": "day 25", "result": 27.4, "unit": "pg"},
      {"measurement": "Mean Corpuscular Volume", "setting": "day 25", "result": 81.8, "unit": "fL"},
      {"measurement": "Mean Hemoglobin Content", "setting": "day 25", "result": 33.6, "unit": "g/dL"},
      {"measurement": "Mean Platelet Volume", "setting": "day 25", "result": 11.8, "unit": "fL"},
      {"measurement": "Monocytes (%)", "setting": "day 25", "result": 5.3, "unit": "%"},
      {"measurement": "Monocytes (x 103/ul)", "setting": "day 25", "result": "0.9 x 103/ul"},
      {"measurement": "Platelets", "setting": "day 25", "result": 158000, "unit": "µL⁻¹"},
      {"measurement": "Red Cell Distribution Width", "setting": "day 25", "result": 17.4, "unit": "%"},
      {"measurement": "Reticulocytes", "setting": "day 25", "result": 1.9, "unit": "%"},
      {"measurement": "WEIGHT", "setting": "day 25", "result": 843, "unit": "g"},
      {"measurement": "Blood Urea Nitrogen", "setting": "day -10", "result": 15.35, "unit": "mg/dL"},
      {"measurement": "Creatine", "setting": "day -10", "result": 0.531, "unit": "mg/dL"},
      {"measurement": "Erythrocytes", "setting": "day -10", "result": "6.12e+06", "unit": "µL⁻¹"},
      {"measurement": "Glutamate Pyruvate Transaminase", "setting": "day -10", "result": 20.1, "unit": "U/L"},
      {"measurement": "Granulocytes (%)", "setting": "day -10", "result": 6.5, "unit": "%"},
      {"measurement": "Granulocytes (x 103/ul)", "setting": "day -10", "result": "1.5 x 103/ul"},
      {"measurement": "Hematocrit", "setting": "day -10", "result": 47.5, "unit": "%"},
      {"measurement": "Hemoglobin", "setting": "day -10", "result": 17.3, "unit": "g/dL"},
      {"measurement": "Leucocytes", "setting": "day -10", "result": 23800, "unit": "µL⁻¹"},
      {"measurement": "Lymphocytes (%)", "setting": "day -10", "result": 87.8, "unit": "%"},
      {"measurement": "Lymphocytes (x 103/ul)", "setting": "day -10", "result": "20.9 x 103/ul"},
      {"measurement": "Mean Corpuscular Hemoglobin", "setting": "day -10", "result": 28.3, "unit": "pg"},
      {"measurement": "Mean Corpuscular Volume", "setting": "day -10", "result": 77.6, "unit": "fL"},
      {"measurement": "Mean Hemoglobin Content", "setting": "day -10", "result": 36.4, "unit": "g/dL"},
      {"measurement": "Mean Platelet Volume", "setting": "day -10", "result": 11, "unit": "fL"},
      {"measurement": "Monocytes (%)", "setting": "day -10", "result": 5.7, "unit": "%"},
      {"measurement": "Monocytes (x 103/ul)", "setting": "day -10", "result": "1.4 x 103/ul"},
      {"measurement": "Platelets", "setting": "day -10", "result": 266000, "unit": "µL⁻¹"},
      {"measurement": "Red Cell Distribution Width", "setting": "day -10", "result": 11, "unit": "%"},
      {"measurement": "Reticulocytes", "setting": "day -10", "result": 2.1, "unit": "%"},
      {"measurement": "WEIGHT", "setting": "day -10", "result": 824, "unit": "g"}
    ]}
  ]
}
